Test results taken from patent publication US7179825B2, “Retinoic acid mimetic anilides” (Janssen Pharmaceutica N.V., priority 1997, dated 2007).

These compounds were tested on Ovariectomized rats (assay: Vaginal keratinization test on ovariectomized rats (Example C.2)). Settings: estradiol undecylate induced keratinization, per os once daily on days 1-3, active dose = 50% of rats show complete suppression.
Format: in vivo
Description: The property to delay the metabolism of retinoic acid can be evidenced in various in vitro and in vivo experiments. A particular in vitro procedure is described in example C.1 and tests the inhibitory activity of the compounds of formula (I) on the metabolism of retinoic acid in human breast cancer cells. The compounds of the present invention were also effective in suppressing induced vaginal keratinization effects in ovariectomized rats as is described in example C.2.
“Vaginal Keratinization Test on Ovariectomized Rats”
Ovariectomized rats were injected subcutaneously with a sesame oil solution containing 100 μg of estradiol undecylate in a volume of 0.1 ml per 100 g body weight and control animals were injected with sesame oil. On day one, two and three, test animals were treated once daily with a per os dose of the test compound and control animals with the drug vehicle (PEG 200). One day after the last treatment, the animals were sacrificed and their vaginas were processed for histological evaluation according to the method described in J. Pharmacol. Exp. Ther. 261(2), 773–779 (1992). A dose at which 50% of the tested rats show complete suppression of the estradiol undecylate induced keratinization effects is defined as an active dose. Table 23 lists the lowest active dose (LAD in mg/kg) of the compounds of formula (I) which were tested.
In the case of `COc1cc(CC(=O)Nc2ccc(C(C(C)N(C)C)n3ccnc3)cc2)ccc1Cl` (single isomer, unassigned) [Compound 310], the “LAD (lowest active dose)” value is reported as 2.50 mg/kg.
`COc1ccc(CC(=O)Nc2ccc(C(C(C)N(C)C)n3ccnc3)cc2)cc1C` (single isomer, unassigned) [Compound 312] was tested, and the “LAD (lowest active dose)” value was greater than 2.50 mg/kg.
With `COc1cc(CC(=O)Nc2ccc(C(C(C)N(C)C)n3ccnc3)cc2)ccc1C` (single isomer, unassigned) [Compound 314] the “LAD (lowest active dose)” value was greater than 2.50 mg/kg.
`COc1cc(CC(=O)Nc2ccc(C(C(C)N(C)C)n3ccnc3)cc2)ccc1C` (single isomer, unassigned) [Compound 315] was tested, and the “LAD (lowest active dose)” value was greater than 2.50 mg/kg.
For `CC(C(c1ccc(NC(=O)Cc2ccc(N(C)C)cc2)cc1)n1ccnc1)N(C)C` (single isomer, unassigned) [Compound 317], the “LAD (lowest active dose)” value was greater than 5.00 mg/kg.
`COc1ccc(CC(=O)Nc2ccc(C(C(C)N(C)C)n3ccnc3)cc2)cc1OC` (single isomer, unassigned) [Compound 318] was tested, and the “LAD (lowest active dose)” value was greater than 2.50 mg/kg.
With `CCCCOc1ccc(CC(=O)Nc2ccc(C(C(C)N(C)C)n3ccnc3)cc2)cc1` (single isomer, unassigned) [Compound 319] the “LAD (lowest active dose)” value was greater than 5.00 mg/kg.
With `CCCCOc1ccc(CC(=O)Nc2ccc(C(C(C)N(C)C)n3ccnc3)cc2)cc1` (single isomer, unassigned) [Compound 320] the “LAD (lowest active dose)” value was 5.00 mg/kg.
In the case of `CC(C(c1ccc(NC(=O)Cc2ccc3c(c2)OCCO3)cc1)n1cncn1)N(C)C` (single isomer, unassigned) [Compound 322], the “LAD (lowest active dose)” value is reported as greater than 2.50 mg/kg.
For `COc1ccc(C(=O)Nc2ccc(C(C(C)N(C)C)n3cncn3)cc2)cc1OC` (single isomer, unassigned) [Compound 324], the “LAD (lowest active dose)” value was greater than 2.50 mg/kg.
`CC(C(c1ccc(NC(=O)Cc2ccc3c(c2)OCO3)cc1)n1cncn1)N(C)C` (single isomer, unassigned) [Compound 325] was tested, and the “LAD (lowest active dose)” value was 2.50 mg/kg.
For `COc1ccc(CCCC(=O)Nc2ccc(C(C(C)N(C)C)n3cncn3)cc2)cc1OC` (single isomer, unassigned) [Compound 326], the “LAD (lowest active dose)” value was greater than 2.50 mg/kg.
With `COc1ccc(C(=O)Nc2ccc(C(C(C)N(C)C)n3cncn3)cc2)cc1OC` (single isomer, unassigned) [Compound 327] the “LAD (lowest active dose)” value was greater than 2.50 mg/kg.
`COc1ccc(CCC(=O)Nc2ccc(C(C(C)N(C)C)n3cncn3)cc2)cc1OC` (single isomer, unassigned) [Compound 328] was tested, and the “LAD (lowest active dose)” value was greater than 2.50 mg/kg.
For `COc1ccc(CCCC(=O)Nc2ccc(C(C(C)N(C)C)n3cncn3)cc2)cc1OC` (single isomer, unassigned) [Compound 329], the “LAD (lowest active dose)” value was greater than 2.50 mg/kg.
`CC(C(c1ccc(NC(=O)Cc2ccc3c(c2)OCCO3)cc1)n1cncn1)N(C)C` (single isomer, unassigned) [Compound 333] was tested, and the “LAD (lowest active dose)” value was greater than 2.50 mg/kg.
`CC(C(c1ccc(NC(=O)Cc2ccc3c(c2)OCO3)cc1)n1ccnc1)N(C)C` (single isomer, unassigned) [Compound 337] was tested, and the “LAD (lowest active dose)” value was 2.50 mg/kg.
`CC(C(c1ccc(NC(=O)Cc2ccc3c(c2)OCCO3)cc1)n1ccnc1)N(C)C` (single isomer, unassigned) [Compound 338] was tested, and the “LAD (lowest active dose)” value was greater than 2.50 mg/kg.
With `CC(C(c1ccc(NC(=O)Cc2ccc3c(c2)OCO3)cc1)n1ccnc1)N(C)C` (single isomer, unassigned) [Compound 340] the “LAD (lowest active dose)” value was 2.50 mg/kg.
In the case of `COc1ccc(C(=O)Nc2ccc(C(C(C)N(C)C)n3ccnc3)cc2)cc1OC` (single isomer, unassigned) [Compound 341], the “LAD (lowest active dose)” value is reported as greater than 2.50 mg/kg.
`COc1ccc(C(=O)Nc2ccc(C(C(C)N(C)C)n3ccnc3)cc2)cc1OC` (single isomer, unassigned) [Compound 342] was tested, and the “LAD (lowest active dose)” value was greater than 2.50 mg/kg.
In the case of `CC(C(c1ccc(NC(=O)Oc2ccccc2)cc1)n1ccnc1)N(C)C` (single isomer, unassigned) [Compound 343], the “LAD (lowest active dose)” value is reported as greater than 2.50 mg/kg.
For `CC(C(c1ccc(NC(=O)N2CCN(C)CC2)cc1)n1ccnc1)N(C)C` (single isomer, unassigned) [Compound 347], the “LAD (lowest active dose)” value was greater than 5.00 mg/kg.
For `CC(C(c1ccc(NC(=O)N2CCN(C)CC2)cc1)n1ccnc1)N(C)C` (single isomer, unassigned) [Compound 349], the “LAD (lowest active dose)” value was greater than 2.50 mg/kg.
With `COc1ccccc1OCC(=O)Nc1ccc(C(C(C)N(C)C)n2ccnc2)cc1` (single isomer, unassigned) [Compound 350] the “LAD (lowest active dose)” value was greater than 2.50 mg/kg.
With `CCCC(C)C(c1ccc(NC(=O)Cc2ccc(Cl)cc2)cc1)n1ccnc1` (single isomer, unassigned) [Compound 374] the “LAD (lowest active dose)” value was 2.50 mg/kg.
In the case of `COc1ccc(CC(=O)Nc2ccc(C(C(C)N(C)C)n3ccnc3)cc2)cc1OC` (single isomer, unassigned) [Compound 379], the “LAD (lowest active dose)” value is reported as greater than 2.50 mg/kg.
With `CCOC(=O)C(C)C(c1ccc(NC(=O)Cc2ccc(OC)c(OC)c2)cc1)n1ccnc1` (single isomer, unassigned) [Compound 381] the “LAD (lowest active dose)” value was greater than 2.50 mg/kg.
In the case of `CCCCCC(C)C(c1ccc(NC(=O)Cc2ccc(OC)c(OC)c2)cc1)n1ccnc1` (single isomer, unassigned) [Compound 384], the “LAD (lowest active dose)” value is reported as greater than 2.50 mg/kg.
`CCN(CC)C(C)C(c1ccc(NC(=O)Cc2ccc(OC)c(OC)c2)cc1)n1ccnc1` (single isomer, unassigned) [Compound 387] was tested, and the “LAD (lowest active dose)” value was greater than 2.50 mg/kg.
`COc1ccc(CC(=O)Nc2ccc(C(C(C)CN3CCCCC3)n3ccnc3)cc2)cc1OC` (single isomer, unassigned) [Compound 390] was tested, and the “LAD (lowest active dose)” value was greater than 2.50 mg/kg.
In the case of `COc1ccc(CC(=O)Nc2ccc(C(C(C)CN(C)C)n3ccnc3)cc2)cc1OC` (single isomer, unassigned) [Compound 391], the “LAD (lowest active dose)” value is reported as greater than 5.00 mg/kg.
With `COc1ccc(CC(=O)Nc2ccc(C(C(C)CN(C)C)n3ccnc3)cc2)cc1OC` (single isomer, unassigned) [Compound 392] the “LAD (lowest active dose)” value was greater than 5.00 mg/kg.
For `COc1ccc(CC(=O)Nc2ccc(C(C(C)N(C)Cc3ccccc3)n3ccnc3)cc2)cc1OC` (single isomer, unassigned) [Compound 396], the “LAD (lowest active dose)” value was greater than 2.50 mg/kg.
`COc1ccc(CC(=O)Nc2ccc(C(C(C)N(C)Cc3ccccc3)n3ccnc3)cc2)cc1OC` (single isomer, unassigned) [Compound 398] was tested, and the “LAD (lowest active dose)” value was greater than 5.00 mg/kg.
With `CNC(C)C(c1ccc(NC(=O)Cc2ccc(OC)c(OC)c2)cc1)n1ccnc1.O` (single isomer, unassigned) [Compound 401] the “LAD (lowest active dose)” value was greater than 2.50 mg/kg.
In the case of `CCCCN(C)C(C)C(c1ccc(NC(=O)Cc2ccc(OC)c(OC)c2)cc1)n1ccnc1` (single isomer, unassigned) [Compound 406], the “LAD (lowest active dose)” value is reported as greater than 5.00 mg/kg.
In the case of `COc1ccc(CC(=O)Nc2ccc(C(C(C)N(C)CCN(C)C)n3ccnc3)cc2)cc1OC` (single isomer, unassigned) [Compound 407], the “LAD (lowest active dose)” value is reported as greater than 5.00 mg/kg.
In the case of `COc1ccc(CC(=O)Nc2ccc(C(C(C)N3CCOCC3)n3ccnc3)cc2)cc1OC` (single isomer, unassigned) [Compound 408], the “LAD (lowest active dose)” value is reported as greater than 5.00 mg/kg.
`COc1ccc(CC(=O)Nc2ccc(C(C(C)N3CCOCC3)n3ccnc3)cc2)cc1OC` (single isomer, unassigned) [Compound 409] was tested, and the “LAD (lowest active dose)” value was 5.00 mg/kg.
With `COc1ccc(CC(=O)Nc2ccc(C(C3CCCN(C)C3)n3ccnc3)cc2)cc1OC` (single isomer, unassigned) [Compound 410] the “LAD (lowest active dose)” value was greater than 5.00 mg/kg.
For `COc1ccc(CC(=O)Nc2ccc(C(C3CCCCN3C)n3ccnc3)cc2)cc1OC` (single isomer, unassigned) [Compound 411], the “LAD (lowest active dose)” value was 2.50 mg/kg.
In the case of `CCCN(C)C(C)C(c1ccc(NC(=O)Cc2ccc(OC)c(OC)c2)cc1)n1ccnc1` (single isomer, unassigned) [Compound 414], the “LAD (lowest active dose)” value is reported as 5.00 mg/kg.
`COc1ccc(CC(=O)Nc2ccc(C(C(C)OC(=O)N(Cc3ccccc3)Cc3ccccc3)n3ccnc3)cc2)cc1OC` (single isomer, unassigned) [Compound 417] was tested, and the “LAD (lowest active dose)” value was greater than 5.00 mg/kg.
In the case of `COc1ccc(CC(=O)Nc2ccc(C(C(C)N(Cc3ccccc3)Cc3ccccc3)n3ccnc3)cc2)cc1OC` (single isomer, unassigned) [Compound 419], the “LAD (lowest active dose)” value is reported as greater than 5.00 mg/kg.
For `COc1cc(CC(=O)Nc2ccc(C(C(C)N(C)C)n3ccnc3)cc2)cc(OC)c1OC` (single isomer, unassigned) [Compound 428], the “LAD (lowest active dose)” value was greater than 2.50 mg/kg.
`COc1ccc(CCC(=O)Nc2ccc(C(C(C)N(C)C)n3ccnc3)cc2)cc1OC` (single isomer, unassigned) [Compound 429] was tested, and the “LAD (lowest active dose)” value was greater than 2.50 mg/kg.
With `COc1ccc(CCCC(=O)Nc2ccc(C(C(C)N(C)C)n3ccnc3)cc2)cc1OC.O=C(O)C(=O)O` (single isomer, unassigned) [Compound 431] the “LAD (lowest active dose)” value was greater than 2.50 mg/kg.
With `COc1ccc(CC(=O)N(C)c2ccc(C(C(C)N(C)C)n3cncn3)cc2)cc1OC` (single isomer, unassigned) [Compound 437] the “LAD (lowest active dose)” value was greater than 2.50 mg/kg.
In the case of `COc1ccc(CC(=O)N(C)c2ccc(C(C(C)N(C)C)n3cncn3)cc2)cc1OC` (single isomer, unassigned) [Compound 438], the “LAD (lowest active dose)” value is reported as greater than 2.50 mg/kg.
With `COc1ccc(CC(=O)N(C)c2ccc(C(C(C)N(C)C)n3ccnc3)cc2)cc1OC` (single isomer, unassigned) [Compound 439] the “LAD (lowest active dose)” value was greater than 2.50 mg/kg.
